We go through four molecules from patent US9301956B2, “Application of cinchona alkaloid derivatives as cytotoxic compounds” (ADAM MICKIEWICZ UNIVERSITY, priority 2014, dated 2016).

Format in all cases: cell-based
For one data set, the system named is MCF-7 (breast cancer). Nature of the data set: Sulphorhodamine B cytotoxicity test, MCF-7 line. As to conditions: for IC50: Homo sapiens, MCF7, 72 h incubation, SRB. The method, then:
(§1) Cytotoxic activity tests were performed using the following cancer cell lines: MCF-7 (breast cancer), HeLa (cervical cancer) A549 (pulmonary cancer) and KB (nasopharynx cancer) obtained from ECACC (European Collection of Cell Cultures). Cytotoxicity tests were carried out using a standard procedure with sulphorhodamine B. They involved incubation of the cancer cell lines in the logarithmic growth phase for 72 hours with the compound tested and, subsequently, spectrophotometric determination of the degree of cell growth inhibition using adsorption of a dye (sulphorhodamine B) which binds cellular proteins. The determination was carried out according to a procedure reported in: Vichai, V., Kirtikara, K. Nature Protocols, 2006, 1, 1112. […] Solutions of the test compounds were prepared in DMSO in the following concentration range: 0.05; 0.1; 0.5; 1; 5; 10; 50; 100 μM. The cells of the lines tested were treated with the solutions of the test compounds in a laminar-flow chamber which ensured sterile working conditions according to the following procedure: the first three wells were used as a control: they contained 20 μL of DMSO only; successive solutions of the test compound were added to subsequent wells (20 μL), starting with the lowest concentration (three wells for each concentration level). Subsequently, the plates were placed in an incubator for 72 hours. After the end of incubation, the adhered cells were fixed by adding 500 μL of cold (4° C.) 50% trichloroacetic acid (TCA) and incubated at 4° C. for 1 hour. Subsequently, each well was rinsed with sterile water and dried. The operation was repeated five times. The fixed cells were stained for 30 minutes by adding 500 μL of 0.4% of a dye solution (sulphorhodamine B) dissolved in 1% acetic acid. […] Subsequently, the plates were dried in air for approx. 5 minutes. Any unbound dye was dissolved by adding 1500 μL of […] Tris-base buffer (trishydroxymethylaminomethane) to each well and shaken using an orbital shaker for 5 minutes. […] Depending on the type of the cell line, the following growth media were used: • the MCF-7 line was grown in Dulbecco's Modified Eagle's Medium (DME) from Sigma (cat. no. […] R8758).
On the technique in general: The SRB assay estimates cell density from bound dye.

For another data set, the system named is KB (nasopharynx cancer). Nature of the data set: Sulphorhodamine B cytotoxicity test, KB line. The conditions noted are these: for IC50: average of three determinations, read-out: Cytotoxic activity, IC50, KB (nasopharynx cancer). On the procedure: as §1
Another data set relates to HeLa (cervical cancer). Nature of the data set: Sulphorhodamine B cytotoxicity test, HeLa line. The conditions noted are these: for IC50: Homo sapiens, HeLa. The method, then:
as §1

The subject of a further data set is A549 (lung cancer). Nature of the data set: Sulphorhodamine B cytotoxicity test, A549 line. As to conditions: for IC50: Homo sapiens. The method, then:
as §1

Data set [1] concerns cancer cell lines of breast cancer, cervical cancer, lung cancer and nasopharynx cancer. Nature of the data set: Sulphorhodamine B cytotoxicity test, cancer cell lines overall (line not specified). The method, then:
Cytotoxic activity tests were performed using the following cancer cell lines: MCF-7 (breast cancer), HeLa (cervical cancer) A549 (pulmonary cancer) and KB (nasopharynx cancer) obtained from ECACC (European Collection of Cell Cultures).
Cytotoxicity tests were carried out using a standard procedure with sulphorhodamine B. They involved incubation of the cancer cell lines in the logarithmic growth phase for 72 hours with the compound tested and, subsequently, spectrophotometric determination of the degree of cell growth inhibition using adsorption of a dye (sulphorhodamine B) which binds cellular proteins. The determination was carried out according to a procedure reported in: Vichai, V., Kirtikara, K. Nature Protocols, 2006, 1, 1112.
Cancerous cells of the cell line tested in the logarithmic growth phase were seeded onto 24-well plates in a quantity of 20,000 cells/2 mL of the growth medium per well and, subsequently, incubated in an incubator at 37° C., in the 5% CO2 atmosphere for 24 hours. […]
After the end of incubation, the adhered cells were fixed by adding 500 μL of cold (4° C.) 50% trichloroacetic acid (TCA) and incubated at 4° C. for 1 hour. […] Subsequently, 200 μL of solution from each well was transferred to each of two wells on a new 96-well plate and absorption of the solutions was determined spectrophotometrically at a wavelength of 490-530 nm using a plate reader. […]

[2] abbreviates: average of three determinations, read-out: Cytotoxic activity, IC50, MCF-7 line (breast cancer).
[3] abbreviates: 72 h incubation, SRB, average of three determinations, read-out: Cytotoxic activity, IC50, HeLa (cervical cancer).
[4] abbreviates: A549, 72 h incubation, SRB, average of three determinations, read-out: Cytotoxic activity, IC50, A549 (lung cancer).

The structures appear in SMILES notation. Converted amounts (≈) assume the structure as drawn. “And” between values parts separate entries of the source, which are not always exact repeats. Equal entries are not always repeated. Where two headings read alike, the source gives them in different places.

Take `O=c1[nH]c(=O)n([C@H]2C[C@H](O)[C@@H](CO)O2)cc1F` [5-fluoro-2′-deoxyuridine]: the IC50 is 2.81 µg/mL and 11.4 µM with MCF-7 (breast cancer) (setting [2]); 3.37 µg/mL and 13.7 µM with KB (nasopharynx cancer) (72 h incubation, SRB); 3.2 µg/mL and 13 µM with HeLa (cervical cancer) (setting [3]); 3.3 µg/mL and 13.4 µM in the data set on A549 (lung cancer) (setting [4]).
Regarding `O=c1[nH]cc(F)c(=O)[nH]1` [5-fluorouracil], the IC50 with MCF-7 (breast cancer) (setting [2]) is 2.37 µg/mL and 18.2 µM; with KB (nasopharynx cancer) (72 h incubation, SRB), 2.86 µg/mL and 22 µM; in the data set on HeLa (cervical cancer) (setting [3]), 2.73 µg/mL and 21 µM; in the data set with A549 (lung cancer) (setting [4]) it was 2.78 µg/mL and 21.4 µM.
In the case of `C#CCO[C@@H](c1ccnc2ccccc12)[C@H]1C[C@@H]2CCN1C[C@@H]2C=C` [PCN, 9-O-propargylcinchonine], the “times as cytotoxic as 5FU” value in the data set with MCF-7 (breast cancer) (MCF-7 line, relative to 5FU) is on record as “more than two times”; in the data set on HeLa (cervical cancer) (HeLa (cervical cancer), relative to 5FU), “two times”; with A549 (lung cancer) (A549 (pulmonary cancer), relative to 5FU), “more than 1.8 times”. The “times as active as 5 FdU” value with MCF-7 (breast cancer) (MCF-7 line, relative to 5 FdU) was 1.3 times. In the data set with KB (nasopharynx cancer) (72 h incubation, SRB), the “Cytotoxic activity class, KB (nasopharynx cancer)” value is “(A) (IC50<4 μg/mL are generally assumed as active (abbreviated as A))”. In addition, the “times as high activity compared to 5FU” value in the data set on KB (nasopharynx cancer) (KB (nasopharynx cancer), relative to 5FU) is recorded as 2.3 times. In the data set on KB (nasopharynx cancer) (KB (nasopharynx cancer), relative to 5 FdU), the “times as high activity compared to 5 FdU” value was found to be 1.4 times. The “times as cytotoxic as 5 FdU” value with HeLa (cervical cancer) (HeLa (cervical cancer), relative to 5 FdU) was 1.2 times. Besides, in data set [1], the “in vitro cytotoxicity against cancer cell lines” value is “within the range of high activity”. Also, in the data set on A549 (lung cancer) (A549 (pulmonary cancer), relative to 5 FdU), the “cytotoxicity compared with 5 FdU” value is on record as “slightly more cytotoxic”.
For `C=C[C@H]1C[N@@]2CC[C@H]1C[C@@H]2[C@@H](O)c1ccnc2ccccc12` [cinchonine], the IC50 is 4 to 30 µg/mL (≈ 13.6 to 102 µM) with MCF-7 (breast cancer) (read-out: Cytotoxic activity class, MCF-7 line (breast cancer)); 4 to 30 µg/mL (≈ 13.6 to 102 µM) with HeLa (cervical cancer) (72 h, read-out: Cytotoxic activity class, HeLa (cervical cancer)); 4 to 30 µg/mL (≈ 13.6 to 102 µM) in the data set on A549 (lung cancer) (A549, 72 h, read-out: Cytotoxic activity class, A549 (lung cancer)).
